# From patent publication US20100184809A1, “Heterocyclic FXR Binding Compounds” (PHENEX PHARMACEUTICALS AG, priority 2006, published 2010)
# Columns and labels:
# [1] = Aqueous solubility assay, Protocol A, nephelometry method; format: physicochemical; conditions: PBS with 5% DMSO, aqueous with cosolvent or surfactant or cyclodextrin, kinetic from dmso stock, PBS pH 7.4, 5% DMSO, 23° C., 24 hours, read-out: Aqueous solubility pH 7.4
# Experimental: Aqueous solubility of compounds was determined by nephelometry or by the shake-flask method as follows:
# Protocol A, nephelometry method:
# Solubility of compounds was measured in PBS (pH 7.4), 5% DMSO at 23° C. Nepheloskan Ascent (Thermo Electron Corporation) nephelometer was used for measurement of light scattering. Tested compounds were dissolved in DMSO to 10 mM. Prior to measurement the compounds were further diluted with PBS in the wells to final compound concentrations of 100, 70, 50, 35, 25, 17, 12 and <10 μg/ml.
# The plates were incubated at room temperature for 24 hours to reach equilibrium and the scattered light was measured. Assay validation: Aqueous solubility of acetylsalicylic acid was determined to validate the assay.
# The following compounds of Table 2 exemplify such solubility with “−−” meaning solubility<2 μM, “+” meaning 2 μM solubility 100 μM and “++” meaning solubility
# [2] = target: T1, human FXRalpha ligand binding domain (LBD) (Homo sapiens, UniProt Q96RI1); assay: FRET activity assay (ligand mediated cofactor peptide interaction, LANCE); format: biochemical; conditions: GST-FXR-LBD / biotinylated SRC-1 peptide (676-700)
# T1 construct: made in house; host or cells: E. coli BL21(DE3), vector pDEST15
# T1 sequence (Q96RI1 187-472 isoform Q96RI1-2): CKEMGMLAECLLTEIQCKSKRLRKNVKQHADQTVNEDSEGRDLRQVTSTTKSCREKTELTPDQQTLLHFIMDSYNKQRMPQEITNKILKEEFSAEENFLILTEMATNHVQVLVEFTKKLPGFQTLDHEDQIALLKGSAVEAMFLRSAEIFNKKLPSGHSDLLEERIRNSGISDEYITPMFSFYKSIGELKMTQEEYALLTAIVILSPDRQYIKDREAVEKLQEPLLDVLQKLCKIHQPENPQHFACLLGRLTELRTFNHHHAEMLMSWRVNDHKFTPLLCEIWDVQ
# Outline: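 GST-tagged human FXRα LBD (aa 187-472) from E. coli, with biotinylated SRC-1 peptide 676-700 (200-600 nM), Eu anti-GST and streptavidin-APC in Tris pH 7.5 buffer, 1% DMSO. One hour at room temperature in the dark, then time-resolved FRET read as the 665/615 nm ratio.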
solubility at 24 h [1] [µM],IC50 [2] [µM],SMILES
< 2,,"CC(C)c1onc(-c2c(Cl)cccc2Cl)c1COc1ccc(/C=C/c2cccc(C(=O)O)c2)c(Cl)c1 [Compound B, reference compound]"
> 100,≤ 1,"Cc1nc(OCc2c(-c3c(Cl)cccc3Cl)noc2C(C)C)ccc1N(C)S(=O)(=O)c1ccc(C(=O)O)cc1 [Example 4, 4-(N-(6-((3-(2,6-dichlorophenyl)-5-isopropylisoxazol-4-yl)methoxy)-2-methylpyridin-3-yl)—N-methylsulfamoyl)benzoic acid]"
> 100,≤ 1,"CC(C)c1onc(-c2c(Cl)cccc2Cl)c1COc1ccc(N(C)C(=O)c2ccc(C(=O)O)cc2)c(C(F)(F)F)n1 [Example 7, N-{6-[3-(2,6-dichloro-phenyl)-5-isopropyl-isoxazol-4-ylmethoxy]-2-trifluoromethyl-pyridin-3-yl}-N-methyl-terephthalamic acid]"
,≤ 1,"CC(C)c1onc(-c2c(Cl)cccc2Cl)c1COc1ccc(N(C)Cc2ccc(C(=O)O)cc2)c(C(F)(F)F)n1 [Example 28, 4(((6-((3-(2,6-Dichlorophenyl)-5-isopropylisoxazol-4-yl)methoxy)-2-(trifluoromethyl)pyridin-3-yl)(methyl)amino)methyl)benzoic acid]"
